Measured values reported in US10294230B2, “3,3-difluoropiperidine carbamate heterocyclic compounds as NR2B NMDA receptor antagonists” (Rugen Holdings (Cayman) Limited, priority 2015, dated 2019).
Read-outs that look alike come from different tables or passages of the source.

Tests used:
NR2B receptor = NR2B receptor (Rattus norvegicus (Rat), UniProt P35439+Q00960); assay: [3H] (E)-N1-(2-methoxybenzyl)-cinnamidine radioligand binding, rat brain membranes; settings: for Ki: read-out: Ki at the NR2B receptor high affinity site
NR2B receptor, sequence (Q00960 27-1482, other chains not shown): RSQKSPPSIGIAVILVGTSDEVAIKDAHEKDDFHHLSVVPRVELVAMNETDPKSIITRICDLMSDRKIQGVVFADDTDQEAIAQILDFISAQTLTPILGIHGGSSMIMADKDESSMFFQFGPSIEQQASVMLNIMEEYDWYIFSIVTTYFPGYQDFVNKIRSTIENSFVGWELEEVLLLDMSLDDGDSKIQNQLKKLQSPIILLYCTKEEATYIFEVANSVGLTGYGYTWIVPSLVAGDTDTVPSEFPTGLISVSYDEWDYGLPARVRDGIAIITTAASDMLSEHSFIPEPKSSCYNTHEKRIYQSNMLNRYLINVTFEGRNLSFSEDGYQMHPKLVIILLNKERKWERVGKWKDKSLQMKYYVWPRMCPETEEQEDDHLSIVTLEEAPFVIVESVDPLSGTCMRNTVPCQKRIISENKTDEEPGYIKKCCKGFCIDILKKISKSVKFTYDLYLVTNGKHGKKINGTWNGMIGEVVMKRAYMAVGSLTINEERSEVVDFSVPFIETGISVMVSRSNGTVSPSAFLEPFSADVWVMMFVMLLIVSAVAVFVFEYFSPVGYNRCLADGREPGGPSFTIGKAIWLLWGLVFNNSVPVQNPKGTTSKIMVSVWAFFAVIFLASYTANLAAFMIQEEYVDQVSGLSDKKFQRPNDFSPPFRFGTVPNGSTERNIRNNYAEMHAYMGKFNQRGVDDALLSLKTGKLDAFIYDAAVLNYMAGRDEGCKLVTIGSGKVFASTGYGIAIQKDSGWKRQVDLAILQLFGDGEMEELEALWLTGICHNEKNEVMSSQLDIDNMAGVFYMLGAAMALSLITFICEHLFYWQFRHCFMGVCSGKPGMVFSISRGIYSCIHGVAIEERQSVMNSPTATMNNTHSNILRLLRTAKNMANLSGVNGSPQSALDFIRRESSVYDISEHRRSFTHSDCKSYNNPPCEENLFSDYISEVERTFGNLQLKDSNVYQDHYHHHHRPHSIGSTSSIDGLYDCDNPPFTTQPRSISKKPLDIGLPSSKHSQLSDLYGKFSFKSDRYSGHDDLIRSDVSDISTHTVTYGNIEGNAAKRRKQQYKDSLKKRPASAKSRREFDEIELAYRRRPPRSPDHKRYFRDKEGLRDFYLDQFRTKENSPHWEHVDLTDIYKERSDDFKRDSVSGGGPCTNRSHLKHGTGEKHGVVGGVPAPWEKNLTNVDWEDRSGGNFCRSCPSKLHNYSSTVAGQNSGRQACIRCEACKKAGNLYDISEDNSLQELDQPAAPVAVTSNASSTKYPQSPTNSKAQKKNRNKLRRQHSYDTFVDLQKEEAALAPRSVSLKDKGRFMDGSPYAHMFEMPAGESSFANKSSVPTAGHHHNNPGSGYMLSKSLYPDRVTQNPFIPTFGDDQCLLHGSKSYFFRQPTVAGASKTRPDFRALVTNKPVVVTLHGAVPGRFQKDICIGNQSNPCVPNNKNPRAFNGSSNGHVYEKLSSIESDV
Procedure: (§1) This example describes NMDA receptor binding assays using two different radioligands, [^3H] […] An established binding assay using the non-selective NMDA receptor ligand [^3H] […] The binding assay method using the NR2B selective receptor ligand [^3H] […] This assay serves as a selective measure of NR2B receptor binding activity in native rat brain receptors. Briefly, the brains of Male Wistar rats were homogenized (Polytron) before centrifugation at 40,000×g for 15 minutes at 4° C. After 2 washes, the final pellet was homogenized and stored at −80° C. The protein concentration was determined by Bradford assay.
[^3H] […] Thus, using [^3H]
(§2) Test compounds were solubilized at 10 mM in DMSO. Then the dilutions were performed with a constant solvent concentration (1% DMSO) in the assay.
(§3) After incubation for 4.5 h at room temperature, the assays were filtered on GF/B filters pretreated with 0.3% (v/v) PEI with a Brandel system for [^3H] […] The experiment was performed in duplicate (n=2).

hERG channel = hERG channel (Homo sapiens (Human), UniProt Q12809); assay: hERG channel inhibition, whole cell patch clamp in HEK293 cells; assay type: cell-based; settings: for IC50: HEK293, whole cell patch clamp
hERG channel, sequence (Q12809 whole entry): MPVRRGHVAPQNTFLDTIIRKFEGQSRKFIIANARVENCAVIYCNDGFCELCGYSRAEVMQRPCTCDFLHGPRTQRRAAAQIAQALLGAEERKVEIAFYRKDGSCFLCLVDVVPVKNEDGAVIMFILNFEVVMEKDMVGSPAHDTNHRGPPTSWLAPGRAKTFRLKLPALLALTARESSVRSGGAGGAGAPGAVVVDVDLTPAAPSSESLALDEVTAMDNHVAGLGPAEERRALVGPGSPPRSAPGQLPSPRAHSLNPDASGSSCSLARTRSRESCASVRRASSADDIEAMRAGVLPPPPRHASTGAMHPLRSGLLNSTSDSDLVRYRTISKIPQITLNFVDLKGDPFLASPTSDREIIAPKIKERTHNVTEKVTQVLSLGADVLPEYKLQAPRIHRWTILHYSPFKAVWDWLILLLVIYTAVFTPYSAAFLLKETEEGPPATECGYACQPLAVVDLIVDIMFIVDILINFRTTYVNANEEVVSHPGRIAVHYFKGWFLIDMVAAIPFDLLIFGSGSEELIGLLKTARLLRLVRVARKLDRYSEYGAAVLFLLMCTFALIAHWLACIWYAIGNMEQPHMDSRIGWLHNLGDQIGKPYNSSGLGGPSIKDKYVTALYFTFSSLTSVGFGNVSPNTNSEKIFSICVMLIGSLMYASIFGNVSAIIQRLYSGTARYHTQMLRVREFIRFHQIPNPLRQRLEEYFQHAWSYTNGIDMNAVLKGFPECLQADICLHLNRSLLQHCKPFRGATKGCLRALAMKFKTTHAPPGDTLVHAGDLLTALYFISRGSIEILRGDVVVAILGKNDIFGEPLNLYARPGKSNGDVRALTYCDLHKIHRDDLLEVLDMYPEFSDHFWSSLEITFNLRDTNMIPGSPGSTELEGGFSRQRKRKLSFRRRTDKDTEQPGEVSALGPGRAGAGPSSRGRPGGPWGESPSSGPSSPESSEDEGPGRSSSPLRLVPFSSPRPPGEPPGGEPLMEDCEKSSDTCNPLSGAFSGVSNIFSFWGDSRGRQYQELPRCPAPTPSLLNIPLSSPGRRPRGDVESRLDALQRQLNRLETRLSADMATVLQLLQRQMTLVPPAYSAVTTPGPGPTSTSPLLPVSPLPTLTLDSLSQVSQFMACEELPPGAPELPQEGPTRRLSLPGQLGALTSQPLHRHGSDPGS
Procedure: The assay was performed on hERG channel stably expressed in HEK293 cells. The cells were cultured at 37° C. in a humidified CO2 incubator in the growth medium consisting of DMEM, 10% fetal bovine serum and antibiotics. Prior to the assay, the cells were seeded onto a 12 mm PDL-coated glass coverslip and cultured in a 35 mm Petri dish. After 16 to 40 hr culture, the cover slip was transferred into the chamber of OctaFlow perfusion system (ALA Instrument) and under a constant flow of extracellular solution (140 mM NaCl, 4 mM KCl, 1 mM MgCl2, 2 mM CaCl2, 10 mM HEPES, 10 mM D-glucose, pH 7.35, osmolarity 290). Whole cell patch clamping was performed with a glass micropipette filled with intracellular solution (120 mM KCl, 1.75 mM MgCl2, 5.4 mM CaCl2, 10 mM HEPES, 10 mM EGTA, and 4 mM ATP-K2, PH 7.2, osmolarity 310). Giga-seal was maintained during the test. The voltage control and current measurement were carried out using Axon amplifier 700B, Digidata 1440A and CLAMPEX10 software (Molecular Devices). Whole-cell hERG currents were recorded following the Petroski protocol: the cell was held at −80 mV, and the voltage step jumped from −80 to 30 mV and stay for 2 sec with a 20 ms prepulse at −40 mV. After depolarization, the voltage was decreased to −40 mV and stay for 2 sec, and returned back to −80 mV. Test compound was applied by quartz capillary tubes tip (200 μm inner diameter), and the flow rate was controlled at 2-3 ml/min with OctaFlow perfusion system. Different concentrations of the compound were applied to the cells for 5 min and the hERG current was measured three times before, during and after compound treatment. The data were analyzed using Clampfit 10 software (Molecular Devices) to generate IC50 values.

human NR1/NR2A = human NR1/NR2A (Homo sapiens (Human), UniProt Q05586+Q12879); assay: NR2A antagonist activity, Fluo-4 calcium influx in HEK293 cells; assay type: cell-based; settings: Table 2.1, glutamate 100 μM, glycine 50 μM
Procedure: (§4) HEK293 cell lines stably expressing cloned human NR1/NR2B and NR1/NR2A, respectively, were established according to standard previously described methods (Hansen et al., Comb. Chem High Throughput Screen. 11:304, 2008). Activation of the NR2A or NR2B subtype of NMDA receptor with glutamate as an agonist and glycine co-agonist on these cells results in calcium influx, which can be monitored with fluorescent indicator Fluo-4.
(§5) For experiments, the cells were seeded onto poly-D-lysine-coated 96-well black plates with clear bottom (Corning) at a density of ˜50,000 cells/well. After overnight culture, the growth medium was removed from the wells and the cells were incubated at 37° C. for 60 min in Hanks buffer containing 4 μM fluo-4-AM (Invitrogen) and 0.1% bovine serum albumin (BSA). After dye-loading, the cells were washed three times with Hanks buffer and incubated for 10 min at room temperature with various concentrations of test compounds prepared in Hanks buffer with 0.1% BSA. The cell plates were placed onto FDSS pCell fluorescence reader (Hamamatsu). After 20 sec reading of background fluorescence, agonist glutamate at final 100 μM and co-agonist glycine at final 50 μM were added to the cells to activate the receptor, and the resulting fluorescence changes were recorded and quantified. Based on the changes in fluorescence intensity, the pharmacological effect of test compounds were analyzed and the IC50 values derived from a non-linear least squares fitting of the concentration-dependent response to a standard logistic equation using Prism (Graphpad, Inc): Amplitude=Max Amplitude/(1+(IC50/[antagonist])^n).

CYP2D6 = CYP2D6 (Homo sapiens (Human), UniProt P10635); assay: CYP P450 enzyme inhibition, pooled human liver microsome; assay type: in vitro ADME; settings: pooled HLM, dextromethorphan 5 μM
CYP2D6, sequence (P10635 whole entry): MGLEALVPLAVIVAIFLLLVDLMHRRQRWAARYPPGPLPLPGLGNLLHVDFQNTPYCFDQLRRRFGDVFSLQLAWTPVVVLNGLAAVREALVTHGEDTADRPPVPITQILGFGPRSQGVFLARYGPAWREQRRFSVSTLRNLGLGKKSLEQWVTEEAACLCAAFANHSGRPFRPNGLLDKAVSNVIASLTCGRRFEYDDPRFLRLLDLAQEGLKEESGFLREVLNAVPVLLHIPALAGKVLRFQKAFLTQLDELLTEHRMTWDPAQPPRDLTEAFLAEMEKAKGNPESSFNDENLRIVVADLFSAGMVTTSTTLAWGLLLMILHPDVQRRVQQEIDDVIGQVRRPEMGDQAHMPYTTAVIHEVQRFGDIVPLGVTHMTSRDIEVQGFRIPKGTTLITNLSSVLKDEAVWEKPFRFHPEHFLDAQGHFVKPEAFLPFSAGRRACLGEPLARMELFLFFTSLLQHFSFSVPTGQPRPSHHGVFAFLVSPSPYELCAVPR
Procedure: Those CYP isoforms and their corresponding probe substrates are as follows: CYP1A2 (phenacetin, 30 μM), CYP2C9 (tolutamide, 100 μM), CYP2C19 (S-mephenytoin, 40 μM), CYP2D6 (dextromethorphan, 5 μM) and CYP3A4 (midazolam, 1 μM). All probe substrates were used at concentrations near or below their Kms. For experiment, a reaction mixture of test compound at 10 μM or in serial dilution, CYP probe substrate described above and 0.2 mg/mL pooled HLM in phosphate buffer, pH 7.4 in a final volume of 200 μL was pre-incubated at 37° C. for 10 minutes in triplicate. The reaction was initiated by addition of NADPH at final concentration of 1 mM. The reaction was terminated after 10 minutes (CYP1A2, CYP2D6 and CYP3A4) or 30 minutes (CYP2C9 and CYP2C19) by addition of 100 μL ice-cold acetonitrile with internal standard (IS). The samples were then centrifuged at 13,000 rpm and the supernatants were injected to LC-MS/MS (Agilent Technologies) to quantify the concentration of the specific metabolites of the probe substrates formed by individual CYP450 isoforms. The inhibition ratio is calculated as: (Mt−M0)/Mwater×100% in which Mt and M0 represent the concentrations of the specific probe substrate metabolite, which was formed by individual CYP450 isoform, at the beginning and end of the reaction in the presence of test compound; while Mwater represents the concentration of the specific metabolite at the end of the reaction in the absence of test compound. Test compound concentration-dependent response data experiments performed in triplicate.

human NR1/NR2B = human NR1/NR2B (Homo sapiens (Human), UniProt Q05586+Q13224); assay: NR2B antagonist activity, Fluo-4 calcium influx in HEK293 cells; assay type: cell-based
human NR1/NR2B, sequence (Q13224 27-1484, other chains not shown): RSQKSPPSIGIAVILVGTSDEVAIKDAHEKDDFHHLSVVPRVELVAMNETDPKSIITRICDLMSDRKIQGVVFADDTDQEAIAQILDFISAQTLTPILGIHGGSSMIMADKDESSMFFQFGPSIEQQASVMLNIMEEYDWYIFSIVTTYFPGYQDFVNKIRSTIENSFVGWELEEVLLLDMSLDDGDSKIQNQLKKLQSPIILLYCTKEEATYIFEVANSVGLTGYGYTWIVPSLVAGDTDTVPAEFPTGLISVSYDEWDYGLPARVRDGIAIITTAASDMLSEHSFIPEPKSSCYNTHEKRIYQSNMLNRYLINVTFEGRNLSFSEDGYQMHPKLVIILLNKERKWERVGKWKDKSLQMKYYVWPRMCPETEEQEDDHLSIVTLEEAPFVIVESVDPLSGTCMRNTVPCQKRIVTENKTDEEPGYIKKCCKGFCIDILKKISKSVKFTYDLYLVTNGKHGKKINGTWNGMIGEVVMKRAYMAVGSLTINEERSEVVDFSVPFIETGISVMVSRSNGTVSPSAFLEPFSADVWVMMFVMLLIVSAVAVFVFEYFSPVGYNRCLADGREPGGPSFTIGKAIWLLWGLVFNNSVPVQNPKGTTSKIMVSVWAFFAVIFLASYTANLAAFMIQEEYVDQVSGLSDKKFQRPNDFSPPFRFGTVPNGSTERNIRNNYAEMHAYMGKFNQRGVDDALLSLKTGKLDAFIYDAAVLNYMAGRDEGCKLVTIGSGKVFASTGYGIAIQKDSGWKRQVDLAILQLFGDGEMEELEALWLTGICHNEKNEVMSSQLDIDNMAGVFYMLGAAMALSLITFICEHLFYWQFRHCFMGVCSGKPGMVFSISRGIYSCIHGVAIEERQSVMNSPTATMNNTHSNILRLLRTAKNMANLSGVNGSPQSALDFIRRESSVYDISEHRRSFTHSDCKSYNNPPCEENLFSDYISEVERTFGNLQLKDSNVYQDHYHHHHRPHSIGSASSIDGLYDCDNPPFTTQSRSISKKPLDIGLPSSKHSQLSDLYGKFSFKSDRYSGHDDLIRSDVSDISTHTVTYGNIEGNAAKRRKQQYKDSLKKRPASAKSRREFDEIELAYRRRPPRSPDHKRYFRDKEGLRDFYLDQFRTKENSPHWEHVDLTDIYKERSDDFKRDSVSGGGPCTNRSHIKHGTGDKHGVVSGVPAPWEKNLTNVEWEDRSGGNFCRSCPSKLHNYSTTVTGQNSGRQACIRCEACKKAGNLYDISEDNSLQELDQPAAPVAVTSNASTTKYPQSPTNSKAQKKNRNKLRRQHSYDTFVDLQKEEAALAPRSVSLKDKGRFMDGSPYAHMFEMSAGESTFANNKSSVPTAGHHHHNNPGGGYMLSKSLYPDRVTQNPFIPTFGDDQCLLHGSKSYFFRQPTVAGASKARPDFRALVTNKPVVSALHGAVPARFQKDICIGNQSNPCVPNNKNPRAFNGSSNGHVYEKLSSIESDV
Procedure: as §4, §5

NMDA receptor = assay: [3H] MK-801 radioligand binding, rat brain membranes; settings: 2 nM [3H] MK-801
Procedure: as §1, §2, §3

[1] = test system: electroconvulsive threshold (tonic convulsions); assay: Electroconvulsive Threshold Test (ECT); assay type: in vivo, rats; settings: rats
Procedure: Test compound E1-8.2 was administered as the free base.
Rats were administered ECS (rectangular current: 0.6 ms pulse width, 1.5 s duration, 200 Hz) via earclip electrodes connected to a constant current shock generator (Ugo Basile: type 7801). Test compounds were administered by oral gavage (p.o.) 1 hour before the test at a dose volume of 5 mL/kg.
Treatment groups of 20 rats were exposed to ECS as follows: The first animal was exposed to 30 mA of ECS. […] (increases of 5 mA) until the first tonic convulsion was observed. Once the first tonic convulsion was observed, the intensity of ECS was decreased by 2 mA for the next animal and then decreased or increased by 2 mA from animal to animal depending on whether the previous animal convulsed or not. If the first animal did convulse (tonic convulsions) within 5 seconds, animal no2 is exposed to 25 mA, etc. . . . (decreases of 5 mA) until the absence of tonic convulsions was observed. At this point, the intensity of ECS was increased by 2 mA for the next animal and then decreased or increased by 2 mA from animal to animal depending on whether the previous animal convulsed or not. The minimum current intensity applied is 5 mA and the maximum 95 mA. The first 5 animals serve to approach threshold current and were not included in the analysis. The results are presented as the mean current intensity administered to the final 15 animals of a group. The test was performed blind. A positive percent change indicates an anticonvulsant effect. A negative percent change indicates a proconvulsant effect. The test substance was evaluated at 4 doses, typically using 0.5% dimethylsulfoxide, 4% hydroxypropyl-b-cyclodextrin water as a vehicle, and administered p.o. 60 minutes before ECS, and compared with a vehicle control group. Diazepam (16 mg/kg p.o.), administered under the same experimental conditions, was used as reference substance. The experiment included 6 groups. Data with the test substance was analyzed by comparing treated groups with vehicle control using one-way ANOVA followed by Dunnett's t tests.

[2] = test system: KCl-induced cortical spreading depression; assay: Cortical Spreading Depression (CSD), aura phase of migraine model; assay type: in vivo; settings: rats
Procedure: The cortical spreading depression model is utilized to investigate whether treatment with compounds of the present invention affect electrophysiological and hemodynamic events in a rat model of migraine.
Rats were anesthetized with 5% isoflurane (in 70% N2O and 30% O2; flow 300 ml/min) and placed in a stereotactic frame. […] The rectal temperature was maintained at 37.0±1.0° C. with a homeothermic blanket system. The skin was opened by a medial incision and retracted laterally. Three burr holes were drilled under saline cooling over the right hemisphere at the following coordinates (mm from bregma): (1) posterior 4.5, lateral, 2.0 (occipital cortex): KCl application site; (2) posterior 0.5, lateral 2.0 (parietal cortex): LDF recording site; (3) anterior 2, lateral 2 (frontal cortex): DC potential recording site. A laser-Doppler flow probe (Oxyflow, Oxford Optronics, UK) to monitor CBF and an invasive Ag/AgCl electrode for measuring direct current (DC) potential shifts were placed in the parietal and frontal cortex burr holes on the intact dura and in the cortex, respectively. The laser-Doppler flow probe was positioned in an area free of large pial and dural vessels to minimize a large-vessel contribution to the signal. For the DC-potential measurement, a reference electrode was fixed in the neck. Dura overlying the occipital cortex was gently removed and care was taken to avoid bleeding. After surgical preparation, the cortex was allowed to recover for 15 minutes under saline irrigation. A cotton ball (2 mm diameter) soaked with 1M KCl was placed on the pial surface and kept moist by placing 5 μl of KCl solution every 15 minutes. Test compound or vehicle was administered ten (10) minutes prior to CSD initiation. […] The number of KCl-induced CSDs was counted for 2 hours. The CBF and DC-potentials were monitored continuously starting from 5 minutes before KCl exposure.
Test compound E1-1.2 was administered as a mesylate salt (mpk based on molecular weight of the mesylate salt).
The data was collected in Windaq acquisition software (Dataq Instruments, USA) at 20 kHz. The raw data was analyzed in Clampfit program (Axon Instruments, USA). The signals were low pass filtered (cut off range 5-10000 Hz) that CSD episodes in DC and CBF could be confirmed. The following parameters were analyzed: i) the number, duration and amplitude of DC-potentials, and ii) the number and amplitude of CBF events.
Doses were given as milligram per kilogram (mpk). […] Bars represent mean±Standard Error of Mean (SEM), and differences were considered to be statistically significant at the P<0.05 level (n=8, * different from vehicle group). Statistical analysis was performed using StatsDirect statistical software. Differences between groups were analyzed by using 1-way ANOVA and Dunnett's post hoc test.

[3] = Table 2.1, HEK293 human NR1/NR2B, glutamate 100 μM, glycine 50 μM
[4] = E1-1.2 at various doses, MK-801 1.25 mg/kg

| Molecule | hERG @ 10 μM (%) (hERG channel) | displacement of [3H] (E)-N1-(2-methoxybenzyl)-cinnamidine at the NR2B receptor high affinity site (NR2B receptor; rat brain membranes) [%] | CYP2D6 @ 10 μM (%) (CYP2D6) | IC50 (human NR1/NR2B; [3]) [nM] | IC50 (human NR1/NR2B; Table 2.2) [nM] | IC50 (human NR1/NR2B; Table 2.3) [nM] | partial effect on [3H] MK-801 binding (NMDA receptor) [%] | other results |
| --- | --- | --- | --- | --- | --- | --- | --- | --- |
| COc1ccccc1CNC(=N)/C=C/c1ccccc1 [(E)-N1-(2-methoxybenzyl)-cinnamidine, reference compound] | – | – | – | – | – | – | – | Ki (NR2B receptor; rat brain membranes, [3H] (E)-N1-(2-methoxybenzyl)-cinnamidine): 0.18 nM |
| O=C(OCc1ccc(Cl)cc1)N1CC[C@H](CNc2nccn3cnnc23)C(F)(F)C1 [Compound E1-1.3, R-4-chlorobenzyl 4-(([1,2,4]triazolo[4,3-a]pyrazin-8-ylamino)methyl)-3,3-difluoropiperidine-1-carboxylate] | 19 | 97 | 37 | 14.8 | 14.8 | 14.8 | 41 | Ki (NR2B receptor): 2.34 nM; IC50 (human NR1/NR2A): > 10000 nM |
| CCc1ccc(COC(=O)N2CC[C@H](CNc3nccn4cnnc34)C(F)(F)C2)cc1 [Compound E1-1.5, R-4-ethylbenzyl 4-(([1,2,4]triazolo[4,3-a]pyrazin-8-ylamino)methyl)-3,3-difluoropiperidine-1-carboxylate] | – | 97 | – | – | – | – | 48 | – |
| Cc1ccc(COC(=O)N2CC[C@H](CNc3cncc4nncn34)C(F)(F)C2)cc1 [Compound E1-2.2, R-4-methylbenzyl 4-(([1,2,4]triazolo[4,3-a]pyrazin-5-ylamino)methyl)-3,3-difluoropiperidine-1-carboxylate] | 32 | – | 18 | 10.4 | 10.4 | 10.4 | – | IC50 (human NR1/NR2A): > 10000 nM |
| Cc1ccc(COC(=O)N2CC[C@H](CNc3ncc4cn[nH]c4n3)C(F)(F)C2)cc1 [Compound E1-8.2, (+)-R-4-methylbenzyl-4-((1H-pyrazolo[3,4-d]pyrimidin-6-ylamino)methyl)-3,3-difluoropiperidine-1-carboxylate] | 57 | 95 | 83 | 17 | 17 | 17 | 33 | IC50 (hERG channel): 6800 nM; IC50 (CYP2D6): 5900 nM; electroconvulsive threshold, pro-/anticonvulsant activity ([1]; 0.5 and 2 mpk p.o., free base): modest proconvulsant activity; electroconvulsive threshold, pro-/anticonvulsant activity ([1]; 10 and 20 mpk p.o., free base): anticonvulsant activity |
| Cc1ccc(COC(=O)N2CC[C@H](CNc3nc4ccccn4n3)C(F)(F)C2)cc1 [Compound E1-9.2, (+)-R-4-methylbenzyl 4-(([1,2,4]triazolo[1,5-a]pyridin-2-ylamino)methyl)-3,3-difluoropiperidine-1-carboxylate] | 38 | 97 | 14 | 48.2 | 48.2 | 48.2 | 34 | Ki (NR2B receptor): 11.3 nM |
| Cc1ccc(COC(=O)N2CC[C@H](CNc3ncccn3)C(F)(F)C2)cc1 [Compound E1-22.2, (+)-R-4-methylbenzyl 3,3-difluoro-4-((pyrimidin-2-ylamino)methyl)-piperidine-1-carboxylate] | – | – | – | – | – | – | – | IC50 (hERG channel): > 10000 nM |
| Cc1ccc(COC(=O)N2CC[C@@H](CNc3nccn4cnnc34)C(F)(F)C2)cc1 [Compound E2-1.2, (−)-S-4-methylbenzyl 4-(([1,2,4]triazolo[4,3-a]pyrazin-8-ylamino)methyl)-3,3-difluoropiperidine-1-carboxylate] | 22 | 98 | – | 156 | 156 | 156 | 36 | Ki (NR2B receptor): 74.3 nM; IC50 (human NR1/NR2A): > 10000 nM |
| FC(F)(F)c1ccc(C(F)(F)CN2CCC(Nc3ncnc4[nH]ncc34)CC2)cc1 [LX-1, reference compound] | – | – | 93 | – | – | – | – | – |
| CN1C(=O)CN=C(c2ccccc2)c2cc(Cl)ccc21 [diazepam, reference compound] | – | – | – | – | – | – | – | electroconvulsive threshold, pro-/anticonvulsant activity ([1]; 16 mpk p.o.): expected anticonvulsant activity |
| Cn1c(=O)c2[nH]cnc2n(C)c1=O [theophylline, reference compound] | – | – | – | – | – | – | – | electroconvulsive threshold, pro-/anticonvulsant activity ([1]; 128 mpk p.o.): expected proconvulsant activity |
| MK-801 [reference compound] | – | – | – | – | – | – | – | number of CBF events vs vehicle ([2]; E1-1.2 at 10 mg/kg, MK-801 at 1.25 mg/kg): decreased; amplitude of DC potentials vs vehicle [2, 4]: not statistically different; duration of DC potentials vs vehicle [2, 4]: increased |
